Measurements reported in PubChem BioAssay (NCI).
Values joined by “and” are separate entries in the source; they are usually repeats but may differ in a detail not shown here. Equal entries are not always repeated.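 The compound was tested at five concentrations on cells cultured in 96-well plates, with a 48-hour exposure period. TGI: concentration producing complete growth inhibition.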

Tests used:
Assay in all cases: NCI tumour cell line growth inhibition, 48 h
UO-31 renal = system: UO-31 renal
SK-MEL-5 melanoma = system: SK-MEL-5 melanoma
SF-539 CNS = system: SF-539 CNS
ACHN renal = system: ACHN renal
SW-620 colon = system: SW-620 colon
BT-549 breast = system: BT-549 breast
786-0 renal = system: 786-0 renal
A549 NSCLC = system: A549 NSCLC
HOP-92 NSCLC = system: HOP-92 NSCLC
IGROV1 ovarian = system: IGROV1 ovarian
MDA-N = system: MDA-N

SMILES | TGI (UO-31 renal) | TGI (SK-MEL-5 melanoma) | TGI (SF-539 CNS) | TGI (ACHN renal) | TGI (SW-620 colon) | TGI (BT-549 breast) | TGI (786-0 renal) | TGI (A549 NSCLC) | TGI (HOP-92 NSCLC) | TGI (IGROV1 ovarian) | TGI (MDA-N)
COc1ccc2c(C(=O)c3c(C)n(CCN4CCOCC4)c4ccccc34)cccc2c1 | > 100 µM | 35.2 µM | > 100 µM | > 100 µM | 55.4 µM | 98.1 µM | > 100 µM | > 100 µM | > 100 µM | > 100 µM | > 100 µM
C=C1C(=O)O[C@@H]2[C@H]1C[C@H](I)[C@@]1(C)CC[C@H](O1)[C@](C)(I)CCCC(C)[C@@H]2O (some centres undefined) | 7.74 µM | > 35.8 µM | 4.25 µM | 3.71 µM | 3.51 µM | 20.9 µM | 2.84 µM | 26.9 µM | 3.52 µM | 5.68 µM | 9.57 µM
COc1cccc(Nc2nc(NS(=O)(=O)c3cc(C)c(Cl)cc3S)n[nH]2)c1 | > 100 µM | > 100 µM | > 100 µM | > 100 µM | > 100 µM | > 100 µM | > 100 µM | > 100 µM | > 100 µM | > 100 µM | > 100 µM
CCCCCC(/C=C/[C@@H]1[C@@H](C(O)CCCCCC(=O)OC)C(=O)C[C@H]1O[Si](C)(C)C(C)(C)C)OCOCCOC (some centres undefined) | 28.9 µM | 30.5 µM | 31 µM | 28.6 µM | 29.3 µM | 24.8 µM | 31.6 µM | > 68.2 µM | 46.2 µM | 20.9 µM | 24.4 µM
Cn1c(=O)n2n(c1=O)C(S(=O)c1ccccc1)C2 (centres undefined) | > 100 µM | > 100 µM | > 100 µM | > 100 µM | > 100 µM | > 100 µM | > 100 µM | > 100 µM | > 100 µM | > 100 µM | > 100 µM
CCCCOCCOCCOC1=C(Cl)C(=O)c2c(O)ccc(O)c2C1=O | 2.68 µM | 1.53 µM | 2.84 µM | 3.11 µM | 1.75 µM | 2.72 µM | 3.4 µM | 4.14 µM | 0.437 µM | 2.78 µM | 2.03 µM
COc1cccc(/C=C2/S/C(=N/Nc3nc(C)c(C(C)=O)s3)NC2=O)c1O | 51.3 µM | 43.5 µM | > 100 µM | 51.6 µM | > 100 µM | 97 µM | > 100 µM | > 100 µM | 91.7 µM | > 100 µM | > 100 µM
CSC1(Cc2ccccn2)C(=O)Nc2cccc([N+](=O)[O-])c21 (centres undefined) | > 100 µM | > 100 µM | > 100 µM | > 100 µM | > 100 µM | > 100 µM | > 100 µM | > 100 µM | > 100 µM | > 100 µM | > 100 µM
CCOC(=O)C(C)(Cc1ccc(O)cn1)NC(=O)c1ccccc1 (centres undefined) | > 100 µM | > 100 µM | > 100 µM | > 100 µM | > 100 µM | > 100 µM | > 100 µM | > 100 µM | > 100 µM | > 100 µM | > 100 µM
Cn1cnnc1SC(F)(F)c1nc2ccccc2o1 | > 100 µM | > 100 µM | > 100 µM | > 100 µM | > 100 µM | > 100 µM | > 100 µM | > 100 µM | > 100 µM | > 100 µM | > 100 µM
CC(=O)Oc1ccc2cc(Oc3ccccc3)c(=O)oc2c1 | > 100 µM | > 100 µM | > 100 µM | > 100 µM | > 100 µM | > 100 µM | > 100 µM | > 100 µM | > 100 µM | > 100 µM | > 100 µM
C=C(Cl)C(Cl)(CBr)CCC(Br)C(C)(C)Cl (centres undefined) | 3.71 µM and 3.73 µM and 11.3 µM | 25.4 µM and 25.2 µM and 28.3 µM | 1.12 µM and 2.69 µM and 3.68 µM | 2.62 µM and 2.63 µM and 3.13 µM | 6.08 µM and 4.35 µM and 27.7 µM | 7.21 µM and 15.7 µM and 9.1 µM | 0.9 µM and 1.03 µM and 3.78 µM | 9.99 µM and 7.54 µM and 16.7 µM | 3.5 µM and 2.72 µM and 4.84 µM | 27.2 µM and 26.9 µM and 53.1 µM | 8.91 µM and 3.02 µM and 21.6 µM
O=C(O)c1ccccc1CC(Cc1ccccc1)C(=O)O (centres undefined) | > 100 µM | > 100 µM | > 100 µM | > 100 µM | > 100 µM | > 100 µM | > 100 µM | > 100 µM | > 100 µM | > 100 µM | > 100 µM
COC(=O)c1ccccc1/C=C1\Cc2ccc3ccccc3c2C1C (centres undefined) | > 100 µM | 64.5 µM | > 100 µM | > 100 µM | > 100 µM | > 100 µM | > 100 µM | > 100 µM | > 100 µM | > 100 µM | > 100 µM
O=S(=O)(O)c1ccc2c(N=Nc3c(O)ccc4ccccc34)cccc2c1 | > 100 µM | > 100 µM | > 100 µM | > 100 µM | > 100 µM | > 100 µM | > 100 µM | > 100 µM | > 100 µM | > 100 µM | > 100 µM
CC1=NNC(=O)[C@H]2[C@H]1CCC1[C@@H]2CC[C@]2(C)[C@@H](O)CC[C@@H]12 (some centres undefined) | > 100 µM | > 100 µM | > 100 µM | > 100 µM | > 100 µM | > 100 µM | > 100 µM | > 100 µM | > 100 µM | > 100 µM | > 100 µM
CON(C)C(=O)C(C)NC(=O)OC(C)(C)C (centres undefined) | > 100 µM | > 100 µM | > 100 µM | > 100 µM | > 100 µM | > 100 µM | > 100 µM | > 100 µM | > 100 µM | > 100 µM | > 100 µM
O=S(=O)(/N=C(\NO)Nc1ccc(Cl)cc1)c1cc(S(=O)(=O)c2ccccc2)cs1 | 27.6 µM | 21.9 µM | 32.4 µM | 42.3 µM | 49.2 µM | 45.7 µM | 30 µM | 93.1 µM | 31.5 µM | 44.9 µM | 34.8 µM
CC(=O)Oc1ccc(/C=C/C(=O)NCCOC(=O)/C=C/c2ccc(OC(C)=O)c(OC(C)=O)c2)cc1OC(C)=O | 83.3 µM | 47.1 µM | > 100 µM | > 100 µM | 61.8 µM | > 100 µM | 84.9 µM | > 100 µM | 95.6 µM | > 100 µM | > 100 µM
CC(C)=NNc1ncnc2nc[nH]c12 | > 87.9 µM | 48.8 µM | > 88.9 µM | > 100 µM | > 100 µM | > 100 µM | > 100 µM | > 72.4 µM | > 93.8 µM | > 100 µM | > 100 µM
CC(=O)O[C@H]1C[C@H]2[C@@H]([C@H](OC(C)=O)C[C@@H]3CC4(CC[C@@]32C)OOC2(CCCCC2)OO4)[C@@H]2CC[C@H]([C@H](C)CCC(=O)O)[C@@]12C | 11 µM | 22.6 µM | 20.3 µM | 20.3 µM | 30 µM | 17.3 µM | 24 µM | 12.8 µM | 7.1 µM | 3.9 µM | 26.9 µM
Nc1nc2c(c(=O)[nH]1)NC(CCNc1ccc(C(=O)O)cc1)CN2 (centres undefined) | > 100 µM | > 100 µM | > 100 µM | > 100 µM | > 100 µM | > 100 µM | > 100 µM | > 100 µM | > 100 µM | > 100 µM | > 100 µM
CN(CCCNC(=O)c1c2ccc3ccccc3c2nn1C)CCCNC(=O)c1c2ccc3ccccc3c2nn1C | 19.9 µM | 5.92 µM | 17.8 µM | 23.8 µM | 21.3 µM | 24 µM | 25.7 µM | 26.9 µM | 12.7 µM | 23.3 µM | 8.91 µM
O=C1CC(=O)NC(=NN2C(=O)/C(=C/c3ccc(Cl)cc3)N=C2c2ccccc2)N1 | 31.7 µM | 32 µM | 32.4 µM | 52.4 µM | 31.9 µM | 30.1 µM | 37.5 µM | 30 µM | 26.1 µM | 27.4 µM | 30.2 µM
CC1(CCCCO)C=CC(S(=O)(=O)c2ccccc2)CC1 (centres undefined) | 16.3 µM | 15.4 µM | 20.2 µM | 18.1 µM | 20.6 µM | 27.5 µM | 14.8 µM | 13.6 µM | 7.04 µM | 12.1 µM | 14.4 µM
O=C1NC2=NN=C(c3ccc(Br)cc3)CN2NC12c1ccccc1-c1ccccc12 | > 100 µM | > 100 µM | > 100 µM | > 100 µM | > 100 µM | > 100 µM | > 100 µM | > 100 µM | > 100 µM | > 100 µM | > 100 µM
CCOC(=O)[C@@H]1C[C@@H]1c1ccc(O)c(O)c1 | 60.9 µM | 27.5 µM | 49.3 µM | > 100 µM | 42.2 µM | 75.9 µM | 34.7 µM | > 100 µM | > 100 µM | > 100 µM | 35.1 µM
Brc1ccc(-c2nc(-c3ccc(Br)cc3)n(-c3ccccc3)n2)cc1 | > 100 µM | > 100 µM | > 100 µM | > 100 µM | > 100 µM | > 100 µM | > 100 µM | > 100 µM | > 100 µM | > 100 µM | > 100 µM
O=C1c2ccccc2/C=C\C(c2ccccc2)=N/N1c1ccccc1Cl | 98.8 µM | 26.3 µM | > 100 µM | > 100 µM | > 100 µM | 28 µM | > 100 µM | 60.5 µM | 78.4 µM | > 100 µM | 14.7 µM
